The target in one series is HCV replicon. The series can be described thus: Anti-HCV replicon assay (EC50, luciferase readout). Format: cell-based. As to conditions: human hepatoma Huh-7 cell line harbouring a HCV replicon, 3 days, luciferase, read-out: EC50. In short, it runs like this: (§1)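 Huh-7 cells bearing HCV replicon, 6000 per well, exposed 3 days at 37 °C to 3-fold compound dilutions (0.5% DMSO final where used). EC50 from luciferase luminescence after lysis; CC50 (50% growth inhibition) from CellTiter-Glo luminescence in parallel plates.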

The next series deals with Huh-7 HCV replicon cells. As to the kind of experiment: CC50 assay (CellTiter-Glo) in Huh-7 HCV replicon cells. Format: cell-based, human. Conditions: 3 days, 50% cytostatic concentration. Put shortly: as §1
In general terms: ATP-based viability assays read luminescence as a measure of living cells.

Assay in series [1]: as above
Format: cell-based, human. As to conditions: human, 50% cytostatic concentration. In short, it runs like this: as §1

These results are taken from patent publication US8143394B2, “Pyrido(3,2-d)pyrimidines useful for treating viral infections” (Gilead Sciences, Inc., priority 2006, dated 2012).

pEC50: −log10 of the molar value. Read-outs that look alike come from different tables or passages of the source. A value given as a limit tells only on which side of the number the result lay.

As a reminder, the pEC50 is the negative decadic logarithm of the EC50, by convention in mol/L. As usually defined, the CC50 is the concentration that lowers cell viability or growth by half. Higher therefore signals better tolerance by the cells. Turning to “4-ethoxy-6-(5-methyl-4H-[1,2,4]triazol-3-yl)-pyrido[3,2-d]pyrimidin-2-ylamine [Example 88]”, the pEC50 on HCV replicon was 6.00 to 6.52. Besides, the CC50 in the series with Huh-7 HCV replicon cells lay within 10000 to 20000 nM.
On to `COCCOc1nc(N)nc2ccc(-c3ccc(C(=O)NOC)cc3)nc12` [Example 76, 4-[2-Amino-4-(2-methoxy-ethoxy)-pyrido[3,2-d]pyrimidin-6-yl]-N-methoxy-benzamide], for which the pEC50 with HCV replicon (Hepatitis C virus, 72 h) is 6.00 to 6.52. In series [1], this compound registered a CC50 at 3 days above 20000 nM.
Regarding `CC(C)N1CCC(NC(=O)c2ccc(-c3ccc4nc(N)nc(O[C@H]5CCOC5)c4n3)cc2)CC1` [Example 77, 4-[2-Amino-4-(tetrahydro-furan-3-yloxy)-pyrido[3,2-d]pyrimidin-6-yl]-N-(1-isopropyl-piperidin-4-yl)-benzamide], the pEC50 with HCV replicon (Hepatitis C virus, 72 h) is below 6.00. In addition, the CC50 at 3 days in series [1] was above 20000 nM.
The matching figures for `CN1CCCC1CCNC(=O)c1ccc(-c2ccc3nc(N)nc(O[C@H]4CCOC4)c3n2)cc1` (stereo partly shown) [Example 78, 4-[2-Amino-4-(tetrahydro-furan-3-yloxy)-pyrido[3,2-d]pyrimidin-6-yl]-N-[2-(1-methyl-pyrrolidin-2-yl)-ethyl]-benzamide]: below 6.00 and above 20000 nM.
Turning to `Nc1nc(O[C@H]2CCOC2)c2nc(-c3ccc(C(=O)NCCCN4CCCC4)cc3)ccc2n1` [Example 79, 4-[2-Amino-4-(tetrahydro-furan-3-yloxy)-pyrido[3,2-d]pyrimidin-6-yl]-N-(3-pyrrolidin-1-yl-propyl)-benzamide], the pEC50 in the series on HCV replicon (Hepatitis C virus, 72 h) was 6.00 to 6.52. The compound also displayed a CC50 at 3 days in series [1] above 20000 nM.
The matching figures for `CC(C)(CN1CCCC1)NC(=O)c1ccc(-c2ccc3nc(N)nc(O[C@H]4CCOC4)c3n2)cc1` [Example 80, 4-[2-Amino-4-(tetrahydro-furan-3-yloxy)-pyrido[3,2-d]pyrimidin-6-yl]-N-(1,1-dimethyl-2-pyrrolidin-1-yl-ethyl)-benzamide]: above 6.52 and 10000 to 20000 nM.
The corresponding values for `CC(C)(CN1CCOCC1)NC(=O)c1ccc(-c2ccc3nc(N)nc(O[C@H]4CCOC4)c3n2)cc1` [Example 81, 4-[2-Amino-4-(tetrahydro-furan-3-yloxy)-pyrido[3,2-d]pyrimidin-6-yl]-N-(1,1-dimethyl-2-morpholin-4-yl-ethyl)-benzamide] are above 6.52 and above 20000 nM.
In the case of `Nc1nc(O[C@H]2CCOC2)c2nc(-c3ccc(C(=O)NCC(F)(F)F)cc3)ccc2n1` [Example 82, 4-[2-Amino-4-(tetrahydro-furan-3-yloxy)-pyrido[3,2-d]pyrimidin-6-yl]-N-(2,2,2-trifluoro-ethyl)-benzamide], the pEC50 with HCV replicon (Hepatitis C virus, 72 h) is above 6.52. In series [1], the CC50 at 3 days was 10000 to 20000 nM.
As to `Nc1nc(O[C@H]2CCOC2)c2nc(-c3ccc(C(=O)NCCN4CCCC4)cc3)ccc2n1` [Example 83, 4-[2-Amino-4-(tetrahydro-furan-3-yloxy)-pyrido[3,2-d]pyrimidin-6-yl]-N-(2-pyrrolidin-1-yl-ethyl)-benzamide], the pEC50 in the series with HCV replicon (Hepatitis C virus, 72 h) was above 6.52. The CC50 at 3 days in series [1] was above 20000 nM.
In the case of `Nc1nc(O[C@H]2CCOC2)c2nc(-c3ccc(C(=O)NCCN4CCOCC4)cc3)ccc2n1` [Example 84, 4-[2-Amino-4-(tetrahydro-furan-3-yloxy)-pyrido[3,2-d]pyrimidin-6-yl]-N-(2-morpholin-4-yl-ethyl)-benzamide], the pEC50 in the series on HCV replicon (Hepatitis C virus, 72 h) is above 6.52. The compound further registered a CC50 at 3 days in series [1] above 20000 nM.
The corresponding values for `CCOc1nc(N)nc2ccc(-c3ccc(-c4nnc(C)o4)cc3)nc12` [Example 85, 4-Ethoxy-6-[4-(5-methyl-[1,3,4]oxadiazol-2-yl)-phenyl]-pyrido[3,2-d]pyrimidin-2-ylamine] are below 6.00 and above 20000 nM.
The matching figures for `CCOc1nc(N)nc2ccc(-c3ccc(C(=O)Nc4ccc(F)cc4)cc3)nc12` [Example 86, 4-(2-Amino-4-ethoxy-pyrido[3,2-d]pyrimidin-6-yl)-N-(4-fluoro-phenyl)-benzamide]: 6.00 to 6.52 and above 20000 nM.
The corresponding values for `CCOc1nc(N)nc2ccc(-c3ccc(C(=O)Nc4ccccc4)cc3)nc12` [Example 87, 4-(2-Amino-4-ethoxy-pyrido[3,2-d]pyrimidin-6-yl)-N-phenyl-benzamide] are below 6.00 and above 20000 nM.
On to `CCOc1nc(N)nc2ccc(-c3ccc(C(=O)NC4CC4)s3)nc12` [Example 89, 2-amino-4-ethoxy-6-(2-(N-(cyclopropyl)carbamoyl)-5-thiophenyl)pyrido[3,2-d]pyrimidine], for which the pEC50 in the series with HCV replicon (Hepatitis C virus, 72 h) is above 6.52. Moreover, the CC50 at 3 days in series [1] is above 20000 nM.
